Measured values from the supplement of paper PMC10331698.
± gives the standard deviation of the averaged measurements.

Tests used:
Test in all cases: level (log10 ratio to DMSO vehicle control); higher = higher biomarker level / cell amount than vehicle control
Conditions in all cases: in DMSO
[1] = compound: C=CC(=O)OCC(F)(F)C(F)(F)C(F)(F)C(F)(F)C(F)(F)C(F)(F)C(F)(F)F [1H,1H-Perfluorooctyl acrylate]
Description: (§1)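 BioMAP Diversity Plus panel of 12 human primary cell co-culture systems (3C, 4H, LPS, SAg, BT, BF4T, BE3C, CASM3C, HDF3CGF, KF3CT, MyoF, Mphg). Compounds were added 1 h before stimulation and left for 24 h (MyoF 48 h; BT 72 h for soluble read-outs or 6 d for IgG). Biomarkers were read by ELISA, cytotoxicity by SRB, PBMC viability and proliferation by Alamar Blue. Each well value was divided by the mean of 8 DMSO control wells on the same plate and log10 transformed; duplicate blinded samples were tested at 4 concentrations.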

[2] = compound: COC(=O)CCC(F)(F)C(F)(F)C(F)(F)C(F)(F)F [Methyl 2H,2H,3H,3H-perfluoroheptanoate]
Description: as §1

Perfluoropentanoic acid = compound: O=C(O)C(F)(F)C(F)(F)C(F)(F)C(F)(F)F [Perfluoropentanoic acid]
Description: as §1

[3] = compound: O=C(O)C(F)(F)C(F)(F)C(F)F [4H-Perfluorobutanoic acid]
Description: as §1

[4] = compound: O=C(O)C(F)(F)OC(F)(F)C(F)(F)OC(F)(F)C(=O)O [Perfluoro-3,6-dioxaoctane-1,8-dioic acid]
Description: as §1

[5] = compound: O=S(=O)(O)C(F)(F)C(F)(F)C(F)(F)C(F)(F)C(F)(F)C(F)(F)F [Perfluorohexanesulfonic acid]
Description: as §1

Test System | level (log10) ([1]; 6700 nM) | level (log10) ([1]; 20000 nM) | level (log10) ([1]; 60000 nM) | level (log10) ([2]; 6700 nM) | level (log10) ([2]; 20000 nM) | level (log10) ([2]; 60000 nM) | level (log10) (Perfluoropentanoic acid; 6700 nM) | level (log10) (Perfluoropentanoic acid; 20000 nM) | level (log10) (Perfluoropentanoic acid; 60000 nM) | level (log10) ([3]; 6700 nM) | level (log10) ([3]; 20000 nM) | level (log10) ([3]; 60000 nM) | level (log10) ([4]; 6700 nM) | level (log10) ([4]; 20000 nM) | level (log10) ([4]; 60000 nM) | level (log10) ([5]; 6700 nM) | level (log10) ([5]; 20000 nM) | level (log10) ([5]; 60000 nM)
HDF3CGF:Collagen III | 0.067 ± 0.035 | 0.042 ± 0.04 | -0.0245 ± 0.084 | 0.0065 ± 0.016 | 0.0095 ± 0.00071 | 0.0105 ± 0.015 | 0.005 ± 0.014 | 0.01 ± 0.017 | 0.033 ± 0.034 | -0.005 ± 0.088 | 0.03 ± 0.054 | 0.072 ± 0.042 | -0.0115 ± 0.013 | 0.002 ± 0.011 | 0.0535 ± 0.012 | -0.0005 ± 0.022 | 0.0005 ± 0.015 | 0.0105 ± 0.043
HDF3CGF:EGFR | 0.0075 ± 0.012 | 0.0265 ± 0.019 | -0.051 ± 0.093 | -0.0045 ± 0.0078 | 0.0105 ± 0.029 | -0.0055 ± 0.053 | 0.008 ± 0.02 | -0.0265 ± 0.013 | -0.008 ± 0.027 | -0.0155 ± 0.054 | 0.0005 ± 0.019 | 0.0725 ± 0.12 | -0.001 ± 0.0057 | 0.0145 ± 0.0021 | 0.0245 ± 0.035 | 0.0045 ± 0.025 | -0.0125 ± 0.039 | -0.021 ± 0.04
HDF3CGF:M-CSF | 0.0085 ± 0.015 | -0.006 ± 0.0057 | -0.053 ± 0.069 | -0.0125 ± 0.0064 | -0.008 ± 0.013 | 0.002 ± 0.011 | 0.0025 ± 0.019 | -0.018 ± 0.0099 | 0.004 ± 0.0028 | -0.0305 ± 0.035 | -0.013 ± 0.033 | -0.015 ± 0.041 | -0.007 ± 0.014 | -0.003 ± 0.0028 | -0.0045 ± 0.00071 | 0.001 ± 0.0085 | -0.012 ± 0.0028 | 0.0015 ± 0.00071
HDF3CGF:MMP-1 | 0.013 ± 0.034 | 0.0425 ± 0.0078 | 0.0365 ± 0.019 | 0 ± 0.011 | -0.003 ± 0.018 | -0.004 ± 0.025 | -0.0165 ± 0.013 | -0.0215 ± 0.0021 | -0.0215 ± 0.011 | 0.0005 ± 0.0021 | -0.0025 ± 0.0035 | 0.0075 ± 0.021 | -0.004 ± 0.013 | -0.003 ± 0.014 | -0.0025 ± 0.018 | 0.001 ± 0.025 | -0.0095 ± 0.03 | 0.01 ± 0.028
HDF3CGF:PAI-I | 0.032 ± 0.011 | 0.0515 ± 0.037 | 0.036 ± 0.069 | 0.0005 ± 0.0035 | -0.0055 ± 0.0092 | 0.002 ± 0.021 | -0.0055 ± 0.026 | -0.015 ± 0.013 | 0.007 ± 0.0014 | -0.021 ± 0.12 | 0.0115 ± 0.1 | 0.03 ± 0.069 | 0.0055 ± 0.015 | 0.0135 ± 0.029 | 0.0295 ± 0.012 | -0.0185 ± 0.019 | -0.0145 ± 0.023 | -0.004 ± 0.0057
HDF3CGF:Proliferation 72hr | 0.0035 ± 0.0092 | -0.056 ± 0.078 | -0.168 ± 0.0092 | 0.011 ± 0.0057 | 0.013 ± 0.0057 | 0.0705 ± 0.044 | 0.002 ± 0.041 | 0.0505 ± 0.11 | 0.022 ± 0.03 | -0.0415 ± 0.012 | -0.03 ± 0.0042 | 0.066 ± 0.02 | 0.0035 ± 0.0035 | 0.008 ± 0.016 | 0.012 ± 0.035 | 0.054 ± 0.035 | 0.072 ± 0.051 | 0.107 ± 0.024
HDF3CGF:SRB | -0.003 ± 0.0099 | 0.0015 ± 0.025 | 0.0115 ± 0.0092 | 0.0005 ± 0.005 | -0.001 ± 0.057 | 0.0735 ± 0.091 | 0.012 ± 0.011 | 0.01 ± 0.018 | 0.0125 ± 0.03 | -0.0125 ± 0.06 | -0.0095 ± 0.0035 | 0.0155 ± 0.022 | 0.009 ± 0.041 | -0.0035 ± 0.015 | -0.0125 ± 0.012 | 0.017 ± 0.011 | 0.0145 ± 0.022 | -0.009 ± 0.0085
